For one compound, inhibition results are on record in ChEMBL document CHEMBL3872201, “Synthesis and antiproliferative activity of a natural like glycoconjugate polycyclic compound” (2016).

SMILES strings stand for the structures.

The assay in a line: Cytotoxicity against human MDA-MB-231 cells assessed as inhibition of cell viability at 5 uM after 48 hrs by MTT assay relative to control. Format: functional. The following applies: MDA-MB-231, 48 h.

A word on the inhibition: it is the drop in the measured response relative to a control, in per cent. As to `C=C1c2c(C)nn(-c3ccc(OC)cc3)c2N(C)C23CC1C1(C)c4c(C)nn(-c5ccc(OC)cc5)c4N(C)C(C)(CC12)C3` (stereo unspecified), the inhibition at 5 µM was 26%.
